Experimental data taken from patent publication US10254223B2, “Apparatus and methods for analysing fluorescent particles” (ChemoMetec A/S, priority 2008, dated 2019).

Legend:
Format in all cases: cell-based
Jurkat (JM) cells = assay: Annexin V apoptosis assay (AlexaFluor 488-Annexin V, PI) with the claimed apparatus; details: 3 μM Camptothecin, three hours incubation
Procedure: Here the claimed apparatus is used in assay fluorescently labeled Annexin V to stain apoptotic and necrotic cells and PI to distinguish between the early and late apoptotic/necrotic cells. Jurkat (JM) cells were cultivated at 37° C. in a humidified air atmosphere with 5% CO2 in RPMI (Invitrogen, Cat. No. 61870) supplemented with 10% heat-inactivated fetal bovine serum (Invitrogen, Cat. No. 10108-165). 3 μM Camptothecin (Sigma, Cat. No. C-9911) was added to the cells in order to induce apoptosis. After three hours incubation (37° C., 5% CO2) cells were harvested in cold phosphate-buffered saline (PBS) and stained with AlexaFluor 488-labelled Annexin V from the Vybrant® Apoptosis Assay Kit #2 (Molecular probes, V13241) according to the manufacturer's protocol. The stained cells were loaded into a cassette containing propidium iodide. The cassette was placed in the claimed apparatus and the cells were counted and investigated using the claimed apparatus and in-house developed software. The cells were also investigated using an Olympus IX50 fluorescent microscope. Images were captured using a Lumenera CCD camera and in-house developed software. AF488 fluorescence was detected using a U-MWIBA3 (blue bandpass) filter cube (Olympus) and PI fluorescence was detected using a U-MWG2 (green longpass) filter cube (Olympus).

Jurkat cells [1] = assay: Early apoptosis by mitochondrial membrane potential (JC-1 and DAPI staining); details: 10 μM campthotecin, 5 hours at 37° C.
From the text: Loss of the mitochondrial membrane potential is known to precede apoptosis and chemical-hypoxia-induced necrosis. The lipophilic cationic dye JC-1 (5,5,6,6-tetrachloro-1,1,3,3-tetraethylbenzimidazol-carbocyanine iodide) display potential-dependent accumulation in the mitochondria and provides a simple, fluorescent-based method for distinguishing between healthy and apoptotic cells. In healthy cells, the negative charge established by the intact mitochondrial membrane potential facilitates the accumulation of JC-1 in the mitochondrial matrix. At high concentrations JC-1 forms aggregates and become red fluorescent. In apoptotic cells the mitochondrial potential collapses and JC-1 localizes to the cytosol in its monomeric green fluorescent form. A cell impermeable DNA stain (like DAPI) can be included to stain necrotic and late apoptotic cells. Jurkat cells were grown in RPMI+10% FCS to a density of 5.0×10^5 cells/ml and treated with 10 μM campthotecin (apoptosis inducing drug) for 5 hours. Cells were stained with 2.5 μg/ml JC-1 for 10 minutes at 37° C., washed with PBS, resuspended in PBS+1 μg/ml DAPI and analysed using the claimed apparatus.

Jurkat cells [2] = assay: Annexin V apoptosis assay (AF594-annexin V, DACM, SYTOX green) with the claimed apparatus; details: 1 μM nocodazole, 16 hours; for annexin V positive cells (apoptotic cells): viable cells, nonviable cells gated out by SYTOX green
Procedure: Here the claimed apparatus is used in assaying fluorescently labelled annexin V to stain apoptotic and necrotic cells and SYTOX green to distinguish between the early and late apoptotic/necrotic cells. In addition DACM is used to stain all viable cells. Jurkat cells were cultivated at 37° C. in a humidified air atmosphere with 5% CO2 in RPMI (Invitrogen, Cat. No. 61870) supplemented with 10% heat-inactivated fetal bovine serum (Invitrogen, Cat. No. 10108-165). Cells were either treated with 1 μM nocodazole (Sigma, Cat. No. M1404) or left untreated. After 16 hours incubation (37° C., 5% CO2) cells were harvested in cold phosphate-buffered saline (PBS) and stained with AlexaFluor 594-labelled annexin V (Molecular probes, A-13203) according to the manufacturer's protocol. After annexin V staining all viable cells were co-stained using DACM (N-(7-dimethylamino-4-methyl-3-coumarinyl)-maleimide, WAKO Pure Chemical Industries, CAS no. 55145-14-7) and nonviable cells were stained with SYTOX green (Invitrogen, S7020). The stained cells were loaded into a NC-Slide. The NC-Slide was placed in the claimed apparatus and the cells were counted and investigated using the claimed apparatus and in-house developed software. The cells were also investigated using an Olympus IX50 fluorescent microscope. SYTOX green fluorescence was detected using a U-MWIBA3 (blue bandpass) filter cube (Olympus), the annexin V AF594 conjugate was detected using a U-MWG2 (green longpass) filter cube (Olympus) and DACM was detected using the U-MNUA2 (UV band pass) filter cube (Olympus).

CHO cells = assay: Caspase based assay (SR-VAD-FMK poly-caspase FLICA, DACM, SYTOX green); details: 1 μM nocodazole, 16 hours
From the text: Another caspase based apoptosis assay is the FLICAssay (Fluorochrome Inhibitor of Caspases Assay). This assay detects active caspases inside the cell using a caspase specific inhibitor sequence linked to a fluorescent probe. The non-cytotoxic caspase specific inhibitor is cell permeant and passes through the intact plasma membrane and covalently binds to the reactive cysteine residue on the large subunit of the active caspase heterodimer. […] Measuring the fluorescence thus gives a direct measure of the amount of active caspase in the whole living cell.
To quantify caspase activity by the FLICAssay, the cells to be investigated are incubated with the chosen caspase specific inhibitor sequence linked to a fluorescent probe. Cells are washed to remove unbound inhibitor and the fluorescence of the cells is determined using the claimed apparatus thereby making measurement of caspase activity on the single cell level possible. […]
CHO cells were cultivated in RPMI (Invitrogen, Cat. No. 61870) supplemented with 10% heat-inactivated fetal bovine serum (Invitrogen, Cat. No. 10108-165) at 37° C. in a humidified air atmosphere with 5% CO2. […] The NC-Slide was placed in the claimed apparatus and the cells were counted and investigated using the claimed apparatus and in-house developed software. […]

SMILES	concentration of apoptotic cells (Annexin V conjugate binding cells) (Jurkat (JM) cells)	concentration of non-viable cells (PI) (Jurkat (JM) cells)	depolarized/apoptotic cells (JC-1) (Jurkat cells [1]) [%]	viability (DAPI positive cells counted) (Jurkat cells [1])	viability (Jurkat cells [2])	annexin V positive cells (apoptotic cells) (Jurkat cells [2])	annexin V positive cells (apoptotic cells) (Jurkat cells [2]; listed as Nocodazole) [%]	cells exhibiting strong red fluorescence (caspase activity, apoptotic cells) versus untreated cells (CHO cells)
CC[C@@]1(O)C(=O)OCc2c1cc1n(c2=O)Cc2cc3ccccc3nc2-1 [Camptothecin]	2.6×10^5	4.5×10^4	60	approximately 96%				
COC(=O)Nc1nc2ccc(C(=O)c3cccs3)cc2[nH]1 [nocodazole]					almost not affected	more than 40%	~40	Substantially more
